Measurements reported in patent US20250059187A1, “COVALENTLY BINDING INHIBITORS OF G12S, G12D AND/OR G12E MUTANTS OF K-RAS GTPASE” (The Regents of the University of California, priority 2021, published 2025).

How the values were obtained:
[1] = tested on: A549 cells (homozygous KRAS p.G12S mutation); experiment: Immunoblot and Raf-RBD pulldown in A549 cells; assay type: cell-based; conditions: 2 h
Protocol: (§1) Cells were passed for at least two generations after cryorecovery before they were used for assays. All cell lines were tested mycoplasma negative using MycoAlert™ Mycoplasma Detection Kit (Lonza). When indicated, cells were treated with drugs at 40-60% confluency at a final DMSO concentration of 1%. At the end of treatment period, cells were placed on ice. Unless otherwise indicated, adherent cells were washed once with ice-cold PBS (1 mL), scraped with a spatula, and pelleted by centrifugation (500×g, 5 min). Suspension cells were pelleted by centrifugation (500×g, 5 min), washed with 1 mL ice-cold PBS, and pelleted again. Cells were lysed in RIPA buffer supplemented with protease and phosphatase inhibitors (cOmplete and phosSTOP, Roche) on ice for 10 min. For RBD pulldown experiments, cells were lysed in Co-IP Lysis Buffer in lieu of RIPA buffer. Lysates were clarified by high-speed centrifugation (19,000×g, 10 min). Concentrations of lysates were determined with protein BCA assay (Thermo Fisher) and adjusted to 2 mg/mL with additional RIPA buffer (or Co-IP Lysis Buffer). Samples were mixed with 5×SDS Loading Dye and heated at 95° C. for 5 min.
Ras·GTP pulldown was performed with GST-RBD agarose beads (Cytoskeleton, 10 μL, 30 μg loaded GST-RBD). 50 μL lysate (2 mg/mL) was mixed with 10 μL beads, and the suspension was incubated at 4° C. for 1 h with constant end-to-end rotation. The beads were settled by centrifugation (500×g, 5 min) and the supernatant was carefully removed. The beads were washed with 2×500 μL ice-cold Co-IP wash buffer. Bound protein was eluted with 10 μL 2×SDS Loading Buffer.
Membranes were blocked in 5% BSA-TBST for 1 h at 23° C. […] After washing the membrane three times with TBST (5 min each wash), secondary antibodies (goat anti-rabbit IgG-IRDye 800 and goat anti-mouse IgG-IRDye 680, Li-COR) were added as solutions in 5% skim milk-TBST at the dilutions recommended by the manufacturer. Secondary antibody binding was allowed to proceed for 1 h at 23° C. The membrane was washed three times with TBST (5 min each wash) and imaged on a Li-COR Odyssey fluorescence imager.

[2] = tested on: H358 cells (heterozygous KRAS p.G12C); experiment: Immunoblot in H358 cells; assay type: cell-based; conditions: 10 μM, 2 h
Protocol: as §1, with “Samples were mixed with 5×SDS Loading Dye and heated at 95° C. for 5 min.” left out
(§2) Unless otherwise noted, SDS-PAGE was run with Novex 16% Bis-Tris gel (Invitrogen) in MES running buffer (Invitrogen) at 200 V for 60 min following the manufacturer's instructions. […] The membrane was washed three times with TBST (5 min each wash) and imaged on a Li-COR Odyssey fluorescence imager.

[3] = molecular target: K-Ras(G12S) (Homo sapiens, UniProt P01116, G12S); experiment: Covalent modification of recombinant K-Ras(G12S) by whole-protein mass spectrometry; assay type: binding; design: human K-Ras (G12S, aa 1-169); 6xHis tag + TEV cleavage site (N, cleaved yes); made in house; host or cells: E. coli BL21(DE3); conditions: 23° C.
Procedure, shortened: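 Recombinant K-Ras diluted to 400 nM or 1 μM in 20 mM HEPES pH 7.5, 150 mM NaCl, 1 mM MgCl2 and incubated with compound added from 100× DMSO stock. Modification extent measured by electrospray whole-protein mass spectrometry; kinetics used 1:1 mixing with 400 nM protein and injection time stamps for elapsed time.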

[4] = tested on: SW1990 cells (homozygous KRAS p.G12D); experiment: Immunoblot in SW1990 cells (G12S ligand); assay type: cell-based; conditions: 10 μM, 2 h
Protocol: as §1, with “Samples were mixed with 5×SDS Loading Dye and heated at 95° C. for 5 min.” left out
as §2

[5] = tested on: parental Ba/F3 cells (with IL-3); experiment: Cell viability assay (CellTiter-Glo), parental Ba/F3 cells; assay type: cell-based, murine; conditions: Mus musculus, BaF3; +10 ng/mL IL-3, 72 h; read-out: IC50, growth of parental Ba/F3 cells
Protocol: Cells were seeded into 96-well white flat bottom plates (1,000 cells/well) (Corning) and incubated overnight. […] Cell viability was assessed using a commercial CellTiter-Glo (CTG) luminescence-based assay (Promega). Briefly, the 96-well plates were equilibrated to room temperature before the addition of diluted CTG reagent […] (1:4 CTG reagent:PBS). Plates were placed on an orbital shaker for 30 min before recording luminescence using a Spark 20M (Tecan) plate reader.

[6] = molecular target: T1, wild type K-Ras (Homo sapiens, UniProt P01116); experiment: Covalent modification of test protein after incubation with compound; assay type: binding; conditions: 24-h incubation with 100 μM compound at 23° C. at pH 7.5
T1 construct: human K-Ras (wildtype, aa 1-169); 6xHis tag + TEV cleavage site (N, cleaved yes); made in house; host or cells: E. coli BL21(DE3)

IC50 ([1]; Homo sapiens, A549 cells, read-out: apparent IC50, inhibition of Ras signaling): ~3 µM
covalent reaction with K-Ras(G12S)·GDP ([3]; 10 μM compound): enhanced reaction
time to 100% modification of K-Ras(G12S)·GDP ([3]; 10 μM): < 10 min
% covalent modification of K-Ras G12S ([3]; 24-h incubation, 100 μM compound, pH 7.5): 100%
% covalent modification of wild type K-Ras [6]: 0%
Structure (SMILES): O=C1O[C@H]2CN(c3nc(OCC45CCCN4CCC5)nc4c(F)c(-c5cccc6cccc(Cl)c56)ncc34)CC[C@@H]12 [5′]
effects on phospho-Akt, phospho-Erk and Ras·GTP levels ([1]; 10 μM): nearly complete loss of Ras·GTP and concomitant inhibition of phospho-Erk
phospho-Erk in H358 cells [2]: weak inhibition of phospho-Erk
signaling in SW1990 cells [4]: did not perturb the signaling
IC50 [5]: 12.5 µM
